Results as given in patent US20050118310A1, “Formulations of compounds derived from natural sources and their use with irradiation for food preservation” (priority 2001, published 2005).
Several values for one entry are separate records, joined by “and”; a condition that tells them apart may be missing. Equal entries are not always repeated. Marks after values point to notes of the source that are not given here.

Tests used:
[1] = tested on: S. typhi; experiment: MIC (D10 %) of active compounds in ground beef, S. typhi; assay type: cell-based, Salmonella typhi (ATCC 19430); details: non-irradiated ground beef, 10^5 CFU/g, stored at 4° C. for 24 hours; % w/w or v/w
Method: (§1) Escherichia coli (ATCC 25922) and Salmonella typhi (ATCC 19430) were obtained from the American Type Culture Collection (Rockville, Md., USA) and maintained at −80° C. in Tryptic Soy Broth (TSB; Difco Laboratory, Detroit, Mich.) containing glycerol (10%; v/v). Before each experiment, stock cultures were subcultured through two consecutive 24 h growth cycles in TSB at 35° C. to obtain working cultures containing approximately 10^9 UCF/ml for E. coli and S. typhi.
(§2) Samples were homogenised for 2 min in sterile peptone water (0.1%) using a Lab-blender 400 stomacher (Laboratory Equipment, London, UK). From this mixture, serial dilutions were prepared and appropriate ones were pour-plated in tryptic soy agar (TSA) (Difco, Laboratories, Detroit, Mich., USA) and incubated at 35° C., 24 hours for the numeration of E. coli and S. typhi.
(§3) D10 deteriiination: The kinetics of bacteria destruction by irradiation with or without the active compounds and under different packaging conditions was evaluated by linear regression. Bacterial counts (log CFU/ml) were plotted against irradiation doses or compound concentrations and the D10 values were calculated using SigmaPlot program. Statistical analysis was done using SPSS program. The Duncan test was used with a probability of 0.05.
(§4) The MIC values for the active compounds were determined on the basis of their antibacterial effectiveness in meat. Concentrations retained were those to reduce by 1 log CFU the population of E. coli or S. typhi in ground beef. Ground beef samples weighing 200 g were contaminated with working cultures of E. coli or S. typhi to obtain a final concentration of 10^5 CFU/g. The ground beef samples containing micro-organisms was mixed during 3 minutes at medium speed in a 4L-conmmercial blender (Waring Products, New Hartford, Col., USA) and different concentrations of the active compounds were incorporated, followed by another 3 minutes period mixing. Sterile petri plates (60×15 mm) were filled with ground beef samples containing micro-organisms and different concentrations of active compounds in portion of 25 g each and stored at 4° C. for 24 hours.
(§5) In addition to the above compounds, minimal concentrations of different types of commercial Herbalox® and Duralox® required to reduce by 1 log the bacterial population of E. coli in ground beef were evaluated. […] However, an estimation of the minimal concentration was calculated using the slope of the curve.

[2] = tested on: E. coli; experiment: Shelf life study, E. coli in ground beef irradiated at 0.30 kGy; assay type: cell-based, Escherichia coli; details: stored at 4° C., trans-cinnamaldehyde […], thymol 1.15%, carvacrol […]
Method: Irradiation treatments of ground beef samples for D10 and shelf life determination were performed using UC-15B irradiator (MDS-Nordion International Inc., Kanata, ON, Canada) equipped with a ^60 Co source at a dose rate of 14.42 kGy/h). Irradiation doses used for D10 determination were ranged from 0.25 to 0.55 kGy for E. coli, from 0.50 to 2.0 kGy for S. typhi, and from 0.5 to 2.5 kGy for the mixture of indigenous microorganisms of ground beef. The shelf life study was performed on samples irradiated at 0.30, 0.85, and 1.75 kGy for E. coli, S. typhi, and the mixture of indigenous microorganisms of ground beef, respectively. For each active compound concentration tested, a group of non-irradiated samples sened as a control. For D10 determination, samples were analysed immediately after irradiation. For shelf life studies, samples were stored at 4° C. and analysed periodically.
Microbial analysis was performed by homogenising the samples for 2 mn in sterile peptone water (0.1%) using a Lab-blender 400 stomacher (Laboratory Equipment, London, UK). From this mixture, serial dilutions were prepared and appropriate ones were pour-plated in tryptic soy agar (TSA) (Difco, Laboratories, Detroit, Mich., USA) and incubated at 35° C., 24 hours for the numeration of E. coli and S. typhi. For the ground beef broth, the incubation was performed on Plate Count Agar (PCA; Difco) at 35° C. for 48 h for the numeration mesophilic bacteria, and at 7° C. for 10 days for the numeration of psychrotrophic bacteria. Enterobacteriaceae were numerated on Violet Red Bile Glucose Agar (VRBGA; Difco) 35° C. for 48 hours.
A shelf life study was undertaken to evaluate the radiation sensitivity during refrigerated storage conditions. Ground beef samples contaminated with E. coli, S. typhi, or a mixture of indigenous micro-organisms were irradiated in presence or absence of selected active compounds. […]

[3] = tested on: E. coli; experiment: Irradiation sensitivity of E. coli in chicken breast; assay type: cell-based, Escherichia coli (ATCC 25922); details: trans-cinnamaldehyde 0.050%, thymol 0.038%, tetrasodium pyrophosphate 0.003%, carvacrol 0.029%; for D10(kGy) / Increase in Sensitivity: chicken breast; for D10(kGy): 4° C.; for Increase in Sensitivity: vs control
[4] = tested on: S. typhi; experiment: Irradiation sensitivity of S. typhi in chicken breast; assay type: cell-based, Salmonella typhi (ATCC 19430); details: for D10(kGy) / Increase in Sensitivity: chicken breast; for D10(kGy): 4° C.; for D10(kGy) / irradiation dose necessary to completely eliminate S. typhi from the chicken breast / Increase in Sensitivity: trans-cinnamaldehyde 0.030%, tetrasodium pyrophosphate 0.003%, carvacrol 0.038%, thymol […]; for factor by which the effect was reduced in the chicken breast: concentration of 1/30 of the MIC value in ground beef, compared with ground beef at MIC; for Increase in Sensitivity: vs control
[5] = tested on: E. coli; experiment: MIC (D10 %) of active compounds in ground beef, E. coli; assay type: cell-based, Escherichia coli (ATCC 25922); details: non-irradiated ground beef, 10^5 CFU/g, stored at 4° C. for 24 hours; % w/w or v/w
Method: as §1, §2, §3, §4, §5

[6] = tested on: Six pathogenic and spoilage bacteria, commonly found in meat and meat products; experiment: MIC in artificial culture media (1 log reduction); assay type: cell-based
Method: The concentration ot each active compound added to the meat samples was based on results obtained in a previous experiment. These concentrations represent the minimum inhibitory concentrations (MIC) of the active compounds required to be present in artificial culture media in order to reduce by 1 log the number of bacteria in culture. Six pathogenic and spoilage bacteria, commonly found in meat and meat products, were tested. […] The concentration used for carnosine (1.0%) was selected from the literature (Sebranek, 1999). The concentrations of BHA (0.01%), BHT (0.01%), EDTA (100 ppm), and tetrasodium pyrophosphate (0.1%) corresponded to the concentrations recommended by the Canadian Food Inspection Agency (CFIA).
This value was detennined by testing six pathogenic and spoilage bacteria, commonly found in meat and meat products.

Row | Structure (SMILES) | D10 (%): minimal concentration of active compound required to reduce S. typhi population by 1 log in ground beef [1] | days of storage after which complete inhibition was observed [2] [days] | D10(kGy) [3] | irradiation dose necessary to completely eliminate E. coli from the chicken breast [3] | Increase in Sensitivity [3] [%] | D10(kGy) [4] | factor by which the effect was reduced in the chicken breast [4] | irradiation dose necessary to completely eliminate S. typhi from the chicken breast [4] [kGy] | Increase in Sensitivity [4] [%] | D10 (%): minimal concentration of active compound required to reduce E. coli population by 1 log in ground beef [5] | Mean values of MIC (concentration required in artificial culture media to reduce by 1 log the number of bacteria) [6]
1 | Cc1ccc(C(C)C)cc1O [Carvacrol, carvacrol] | 1.15 ± 0.02^a % | 50 | 0.145 ± 0.003^c kGy | 0.72 kGy | 0 | 0.532 ± 0.071^b kGy | 4 | 2.3 | 17.3 | 0.88 ± 0.12^a % | 0.125%
2 | Cc1ccc(C(C)C)c(O)c1 [Thymol, thymol] | 1.60 ± 0.00^ab % | 15 | 0.131 ± 0.007^b kGy | around 0.75 kGy | 9.7 | 0.570 ± 0.065^b kGy | 5 | 2.8 | 11.4 | 1.14 ± 0.05^a % | 0.1%
3 | O=C/C=C/c1ccccc1 [Trans-cinnamaldehyde, trans-cinnamaldehyde] | 0.89 ± 0.03^a % | 15 | 0.098 ± 0.006^a kGy | 0.75 kGy | 32.4 | 0.341 ± 0.018^a kGy | 1.5 | 1.4 | 47.0 | 1.57 ± 0.10^b % | 0.25% and 0.025%
